Here are results for 18 compounds from patent US12264158B2, “Protein kinase MKK4 inhibitors for promoting liver regeneration or reducing or preventing hepatocyte death” (HEPAREGENIX GMBH, priority 2018, dated 2025).

Experiment [1] deals with T1, MEKK2 (Homo sapiens, UniProt Q9Y2U5).
T1 construct: purchased ProQinase #0583-0000-1
T1 sequence (Q9Y2U5 1-619): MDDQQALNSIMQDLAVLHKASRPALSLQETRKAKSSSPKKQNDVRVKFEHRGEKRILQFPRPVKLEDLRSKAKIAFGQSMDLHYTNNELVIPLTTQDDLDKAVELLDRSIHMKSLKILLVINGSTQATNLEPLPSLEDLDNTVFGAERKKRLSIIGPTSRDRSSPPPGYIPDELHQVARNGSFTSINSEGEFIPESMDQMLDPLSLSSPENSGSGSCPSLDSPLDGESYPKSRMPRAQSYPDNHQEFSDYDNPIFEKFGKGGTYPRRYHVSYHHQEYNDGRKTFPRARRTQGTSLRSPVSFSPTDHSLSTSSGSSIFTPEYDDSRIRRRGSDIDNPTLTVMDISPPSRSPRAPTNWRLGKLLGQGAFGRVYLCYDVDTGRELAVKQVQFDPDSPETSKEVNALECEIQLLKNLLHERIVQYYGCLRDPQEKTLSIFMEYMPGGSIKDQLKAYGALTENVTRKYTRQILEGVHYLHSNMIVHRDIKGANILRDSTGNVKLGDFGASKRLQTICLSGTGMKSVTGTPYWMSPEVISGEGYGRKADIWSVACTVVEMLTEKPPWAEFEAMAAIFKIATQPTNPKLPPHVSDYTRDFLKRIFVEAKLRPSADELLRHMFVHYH
Description: Radiometric protein kinase assay, MEKK2. The format is biochemical. The following applies: substrate Casein, ATP 0.2 μM; read-out: MEKK2, potency derived from IC50-values. Here is the method: A radiometric protein kinase assay was used for measuring the kinase activity of the respective protein kinases. All kinase assays were performed in 96-well polypropylene plates. After the reactions were stopped, the assay mixtures were transferred to 96-well MSFC filter-plates (Millipore). The reaction mix was passed through the filter membrane by aspiration, the membrane was washed 3 times with 150 mM H3PO4, once with ethanol, dried and liquid scintillation cocktail was added. Radioactivity was determined by counting of the samples in a Microbeta multiwell scintillation counter (Wallac).

For experiment [2], the target named is T2, JNK1 (Homo sapiens, UniProt P45983).
T2 construct: M1/Q384; host or cells: HEK-293
T2 sequence (P45983 1-384 isoform P45983-2): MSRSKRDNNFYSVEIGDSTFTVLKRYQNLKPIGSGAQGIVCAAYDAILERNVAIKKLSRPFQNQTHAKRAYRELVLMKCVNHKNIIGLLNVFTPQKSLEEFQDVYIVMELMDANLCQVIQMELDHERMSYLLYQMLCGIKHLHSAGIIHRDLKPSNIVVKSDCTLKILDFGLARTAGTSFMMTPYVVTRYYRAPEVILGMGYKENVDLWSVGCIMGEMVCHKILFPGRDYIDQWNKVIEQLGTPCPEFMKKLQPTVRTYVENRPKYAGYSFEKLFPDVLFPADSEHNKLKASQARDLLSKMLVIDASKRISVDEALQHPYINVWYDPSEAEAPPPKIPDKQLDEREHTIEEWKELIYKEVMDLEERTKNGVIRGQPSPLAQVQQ
Description: KINOMEscan competition binding assay, selectivity against off-target JNK1. The following applies: concentration of 100 nM. Here is the method:
(§1) The assay was performed by combining three components: DNA-tagged kinase; immobilized ligand; and a test compound. The ability of the test compound to compete with the immobilized ligand was measured via quantitative PCR of the DNA tag. The technology is described in detail in Fabian, M. A. et al. A small molecule-kinase interaction map for clinical kinase inhibitors. Nat. […] M. W. et al. A quantitative analysis of kinase inhibitor selectivity, Nat.
(§2) For investigation of the affinity to MKK4, MKK7 and JNK1, the kinases were produced in HEK-293 cells and subsequently tagged with DNA for qPCR detection. […] The liganded beads were blocked with excess biotin and washed with blocking buffer (SEABLOCK™ (Pierce), 1% BSA, 0.05% TWEEN®20, 1 mM DTT) to remove unbound ligand and to reduce nonspecific binding. […] All reactions were performed in polystyrene 96-well plates in a final volume of 0.135 mL. […] The kinase concentration in the eluates was measured by qPCR.
(§3) The test compounds were provided as 10 mM stock solutions. The test solutions at indicated final concentrations were prepared at DiscoverX.

Experiment [3] concerns the target T3, MKK4 (Homo sapiens, UniProt P45985).
T3 construct: S84/D399; host or cells: HEK-293
T3 sequence (P45985 84-399): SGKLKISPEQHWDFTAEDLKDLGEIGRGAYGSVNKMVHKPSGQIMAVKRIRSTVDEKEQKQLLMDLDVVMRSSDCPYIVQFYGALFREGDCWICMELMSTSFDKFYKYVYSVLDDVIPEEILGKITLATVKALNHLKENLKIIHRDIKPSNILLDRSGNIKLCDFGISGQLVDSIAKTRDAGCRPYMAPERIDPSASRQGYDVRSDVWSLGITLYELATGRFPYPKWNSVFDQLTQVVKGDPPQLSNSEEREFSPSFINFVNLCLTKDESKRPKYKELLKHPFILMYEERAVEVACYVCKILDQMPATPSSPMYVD
Put plainly: KINOMEscan competition binding assay, MKK4 potency. As to conditions: concentration of 100 nM. Here is the method: as §1, §2, §3

The target in experiment [4] is BRaf (Homo sapiens, UniProt P15056). Put plainly: KINOMEscan competition binding assay, selectivity against off-target BRaf. The following applies: concentration of 100 nM. The protocol:
as §1, §3

Experiment [5] deals with T4, MKK7 (Homo sapiens, UniProt O14733).
T4 construct: M1/R419; host or cells: HEK-293
T4 sequence (O14733 1-419): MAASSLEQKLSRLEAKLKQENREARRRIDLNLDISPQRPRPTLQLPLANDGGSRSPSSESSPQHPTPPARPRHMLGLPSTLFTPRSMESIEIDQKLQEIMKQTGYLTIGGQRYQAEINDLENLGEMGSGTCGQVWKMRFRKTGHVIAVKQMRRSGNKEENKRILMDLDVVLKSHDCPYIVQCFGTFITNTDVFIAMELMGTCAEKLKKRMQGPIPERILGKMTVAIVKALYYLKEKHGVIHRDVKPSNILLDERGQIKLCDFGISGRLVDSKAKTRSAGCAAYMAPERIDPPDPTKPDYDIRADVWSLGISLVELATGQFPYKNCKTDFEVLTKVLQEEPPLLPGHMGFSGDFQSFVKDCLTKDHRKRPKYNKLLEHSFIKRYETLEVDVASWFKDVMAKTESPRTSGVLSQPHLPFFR
Description: KINOMEscan competition binding assay, selectivity against off-target MKK7. As to conditions: concentration of 100 nM. The protocol: as §1, §2, §3

Bounds are passed on as bounds.

BRaf, sequence (P15056 whole entry): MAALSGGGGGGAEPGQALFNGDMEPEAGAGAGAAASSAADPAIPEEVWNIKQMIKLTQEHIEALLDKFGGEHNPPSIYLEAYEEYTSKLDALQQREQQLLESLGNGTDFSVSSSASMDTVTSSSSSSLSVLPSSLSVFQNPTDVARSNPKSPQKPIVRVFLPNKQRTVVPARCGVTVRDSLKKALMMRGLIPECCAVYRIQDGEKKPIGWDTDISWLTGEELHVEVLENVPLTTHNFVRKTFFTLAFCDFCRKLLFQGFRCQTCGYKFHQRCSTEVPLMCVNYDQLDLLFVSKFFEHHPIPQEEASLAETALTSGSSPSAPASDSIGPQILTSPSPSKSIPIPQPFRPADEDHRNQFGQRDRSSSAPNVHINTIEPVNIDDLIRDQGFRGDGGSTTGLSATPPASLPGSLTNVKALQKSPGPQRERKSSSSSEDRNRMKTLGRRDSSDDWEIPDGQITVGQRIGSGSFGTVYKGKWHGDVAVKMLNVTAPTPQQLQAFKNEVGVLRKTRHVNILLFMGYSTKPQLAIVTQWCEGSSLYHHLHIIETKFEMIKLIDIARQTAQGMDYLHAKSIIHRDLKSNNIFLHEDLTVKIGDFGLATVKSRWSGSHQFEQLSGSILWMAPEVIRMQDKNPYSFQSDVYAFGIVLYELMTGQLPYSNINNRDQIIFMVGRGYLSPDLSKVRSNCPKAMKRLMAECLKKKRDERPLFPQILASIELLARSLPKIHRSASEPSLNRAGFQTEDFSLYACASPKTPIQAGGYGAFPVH

What is called IC50 is the concentration needed to halve the response being measured. With `CCCS(=O)(=O)Nc1ccc(F)c(C(=O)c2n[nH]c3ncc(-c4ccc(OC)cc4Cl)cc23)c1F` [Example 5, N-(3-(5-(2-chloro-4-methoxy-phenyl)-1H-pyrazolo[3,4-b]-pyridine-3-carbonyl)-2,4-difluorophenyl)propane-1-sulfonamide], the concentration for half-maximal inhibition (IC50) in experiment [1] is more than 10 µM.
Still for that read-out and setting: next, `CCCS(=O)(=O)Nc1ccc(F)c(C(=O)c2n[nH]c3ncc(-c4ccc(F)cc4C)cc23)c1F` [Example 4, N-(2,4-difluoro-3-(5-(4-fluoro-2-methylphenyl)-1H-pyrazo-lo[3,4-b]-pyri-dine-3-car-bonyl)-phenyl)-propane-1-sulfonamide]: more than 10 µM; `Cc1cc(F)ccc1-c1cnc2[nH]nc(C(=O)c3cccc(NS(C)(=O)=O)c3F)c2c1` [Example 39, N-(2-fluoro-3-(5-(4-fluoro-2-methylphenyl)-1H-pyrazo-lo[3,4-b]pyridine-3-carbonyl)-phenyl)methanesulfonamide]: more than 10 µM; `CCCS(=O)(=O)Nc1ccc(F)c(C(=O)c2n[nH]c3ncc(-c4ccc(NS(C)(=O)=O)cc4)cc23)c1F` [Example 51g, N-(2,4-difluoro-3-(5-(4-(methylsulfonamido)phenyl)-1H-pyrazolo[3,4-b]pyridine-3-carbonyl)phenyl)propane-1-sulfonamide]: 1 to 10 µM.
On the same count and under the same terms, next, `CCCS(=O)(=O)Nc1c(F)ccc(C(=O)c2n[nH]c3ncc(-c4ccc(Cl)cc4C)cc23)c1F` [Example 72]: 1 to 10 µM; `CCCS(=O)(=O)Nc1c(F)ccc(C(=O)c2n[nH]c3ncc(-c4ccc(C5N=NN=N5)cc4)cc23)c1F` [Example 74, N-(3-(5-(4-(1H-tetrazol-5-yl)phenyl)-1H-pyrazolo[3,4-b]pyridine-3-carbonyl)-2,6-difluorophenyl)propane-1-sulfonamide]: 1 to 10 µM; `CCCS(=O)(=O)Nc1c(F)ccc(C(=O)c2n[nH]c3ncc(-c4ccc(F)cc4C)cc23)c1F` [Example 66, N-(2,6-difluoro-3-(5-(4-fluoro-2-methylphenyl)-1H-pyrazolo[3,4-b]pyridine-3-carbonyl)phenyl) propane-1-sulfonamide]: 1 to 10 µM.
The same measure, in the same setting: the same measure for `CS(=O)(=O)Nc1ccc(F)c(C(=O)c2n[nH]c3ncc(-c4ccc(S(N)(=O)=O)cc4)cc23)c1F` [Example 51b, 4-(3-(2,6-difluoro-3-(methylsulfonamido)benzoyl)-1H-pyrazolo[3,4-b]pyridin-5-yl) benzenesulfonamide]: 1 to 10 µM; for `O=C(c1ccc(F)c(NS(=O)(=O)Cc2ccccc2)c1F)c1n[nH]c2ncc(-c3ccc(C4N=NN=N4)cc3)cc12` [Example 75, N-(3-(5-(4-(1H-tetrazol-5-yl)phenyl)-1H-pyrazolo[3,4-b]pyridine-3-carbonyl)-2,6-difluorophenyl)-1-phenylmethanesulfonamide]: 1 to 10 µM.
As to `CCCS(=O)(=O)Nc1c(F)ccc(C(=O)c2n[nH]c3ncc(-c4cnc(C(F)(F)F)nc4)cc23)c1F` [Example 71, N-(2,6-difluoro-3-(5-(2-(trifluoromethyl)pyrimidin-5-yl)-1H-pyrazolo[3,4-b]pyridine-3-carbonyl)phenyl)propane-1-sulfonamide], in experiment [1], the IC50 was more than 10 µM.
On the same count and under the same terms, next, `CS(=O)(=O)Nc1cccc(C(=O)c2n[nH]c3ncc(-c4ccc5c(c4)OCCO5)cc23)c1F` [Example 40, N-(3-(5-(2,3-dihydro-benzo-[b][1,4]dioxin-6-yl)-1H-pyrazolo[3,4-b]pyridine-3-carbonyl)-2-fluoro-phenyl)-methanesulfonamide]: more than 10 µM; `CCCS(=O)(=O)Nc1c(F)ccc(C(=O)c2n[nH]c3ncc(-c4ccc(S(N)(=O)=O)cc4C)cc23)c1F` [Example 70, 4-(3-(2,4-difluoro-3-(propylsulfonamido)benzoyl)-1H-pyrazolo[3,4-b]pyridin-5-yl)-3-methylbenzenesulfonamide]: 0.5 to 1 µM.
The same measure, in the same setting: the same measure for `CCCCS(=O)(=O)Nc1ccc(F)c(C(=O)c2n[nH]c3ncc(-c4ccc(S(N)(=O)=O)cc4)cc23)c1F` [Example 51c, 4-(3-(3-(butylsulfonamido)-2,6-difluorobenzoyl)-1H-pyrazolo[3,4-b]pyridin-5-yl) benzenesulfonamide]: 1 to 10 µM.
Take `CCCCS(=O)(=O)Nc1cccc(C(=O)c2n[nH]c3ncc(-c4ccc(F)cc4C)cc23)c1F` [Example 42, N-(2-fluoro-3-(5-(4-fluoro-2-methylphenyl)-1H-pyrazo-lo[3,4-b]pyridine-3-carbonyl)-phenyl)butane-1-sulfonamide]: the IC50 in experiment [1] is more than 10 µM.
On to `CCCCS(=O)(=O)Nc1cccc(C(=O)c2n[nH]c3ncc(-c4ccc(OC)cc4Cl)cc23)c1F` [Example 41, N-(3-(5-(2-chloro-4-methoxy-phenyl)-1H-pyrazolo[3,4-b]pyridine-3-carbonyl)-2-fluorophenyl)-butane-1-sulfonamide], for which the IC50 in experiment [1] is more than 10 µM.
Turning to `CCCS(=O)(=O)Nc1ccc(F)c(C(=O)c2n[nH]c3ncc(-c4ccccc4N)cc23)c1F` [Example 26, N-(3-(5-(2-aminophenyl)-1H-pyrazolo[3,4-b]pyridine-3-carbonyl)-2,4-difluorophenyl)-propane-1-sulfonamide], in experiment [2], the “Selectivity vs. JNK1, ratio PoC(JNK1)/PoC(MKK4)” value was “+ (10 > PoC(JNK1)/PoC(MKK4) ≥ 3)”. Besides, in experiment [3], the “MKK4, residual percent of control binding (PoC)” value is “+ (10 ≤ PoC < 30)”. Further, the “Selectivity vs. BRaf, ratio PoC(BRaf)/PoC(MKK4)” value in experiment [4] is recorded as “+ (10 > PoC(BRaf)/PoC(MKK4) ≥ 3)”. For the same compound, in experiment [5], the “Selectivity vs. MKK7, ratio PoC(MKK7)/PoC(MKK4)” value was “+ (10 > PoC(MKK7)/PoC(MKK4) ≥ 3)”.
As to `CCCS(=O)(=O)Nc1ccc(F)c(C(=O)c2n[nH]c3ncc(-c4cccc(F)c4)cc23)c1F` [Example 16, N-(2,4-difluoro-3-(5-(3-fluorophenyl)-1H-pyrazo-lo[3,4-b]pyridine-3-carbonyl)-phenyl)propane-1-sulfon-amide], the “Selectivity vs. JNK1, ratio PoC(JNK1)/PoC(MKK4)” value in experiment [2] was “++ (30 > PoC(JNK1)/PoC(MKK4) ≥ 10)”. Moreover, the “MKK4, residual percent of control binding (PoC)” value in experiment [3] is reported as “++ (1 ≤ PoC < 10)”. Also, the “Selectivity vs. BRaf, ratio PoC(BRaf)/PoC(MKK4)” value in experiment [4] is given as “O (PoC(BRaf)/PoC(MKK4) < 3)”. The “Selectivity vs. MKK7, ratio PoC(MKK7)/PoC(MKK4)” value in experiment [5] is “++ (30 > PoC(MKK7)/PoC(MKK4) ≥ 10)”.
The like results for `CCCS(=O)(=O)Nc1ccc(F)c(C(=O)c2n[nH]c3ncc(-c4cc(Cl)cc(Cl)c4)cc23)c1F` [Example 22, N-(3-(5-(3,5-dichloro-phenyl)-1H-pyrazolo[3,4-b]pyridine-3-carbonyl)-2,4-difluoro-phenyl)propane-1-sulfon-amide] were, in that order, “O (PoC(JNK1)/PoC(MKK4) < 3)”, “O (PoC ≥ 30)”, “O (PoC(BRaf)/PoC(MKK4) < 3)” and “O (PoC(MKK7)/PoC(MKK4) < 3)”.
